In patent US10676465B2, “GLP-1 receptor agonists and uses thereof” (Pfizer Inc., priority 2018, dated 2020):
Where two headings read alike, the source gives them in different places.

What was measured:
human GLP-1R [1] = target: human GLP-1R (Homo sapiens (Human), UniProt P43220, L260F); assay: CHO GLP-1R Clone C6 - Assay 2 (HTRF cAMP agonist assay, low receptor density); details: for Assay 2 Emax (%) / Emax: arithmetic mean, relative to saturating GLP-1 (1 μM); for Emax: read-out: Assay 2 Emax (%), CHO GLP-1R Clone C6 (low receptor density)
Sequence of human GLP-1R (Homo sapiens (Human), UniProt P43220, L260F) (P43220 24-463 L260F): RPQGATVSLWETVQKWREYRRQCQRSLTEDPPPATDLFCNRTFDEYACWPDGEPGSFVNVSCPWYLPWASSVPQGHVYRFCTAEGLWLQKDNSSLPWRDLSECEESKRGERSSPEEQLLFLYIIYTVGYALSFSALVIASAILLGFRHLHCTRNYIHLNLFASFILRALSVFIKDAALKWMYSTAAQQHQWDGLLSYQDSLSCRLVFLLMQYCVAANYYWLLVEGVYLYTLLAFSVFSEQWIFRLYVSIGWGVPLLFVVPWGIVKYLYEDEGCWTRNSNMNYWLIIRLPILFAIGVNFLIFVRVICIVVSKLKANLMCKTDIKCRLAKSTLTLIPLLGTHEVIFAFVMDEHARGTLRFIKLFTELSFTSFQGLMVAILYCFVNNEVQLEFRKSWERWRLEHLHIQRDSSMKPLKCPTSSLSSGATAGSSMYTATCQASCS

human GLP-1R [2] = target: human GLP-1R (Homo sapiens, UniProt P43220, G168S); assay: CHO GLP-1R Clone H6 - Assay 1 (HTRF cAMP agonist assay); format: cell-based; details: for EC50: CHO GLP-1R Clone H6, cAMP HTRF, geometric mean
Sequence of human GLP-1R (Homo sapiens, UniProt P43220, G168S) (P43220 24-463 G168S limits assumed): as the sequence (P43220 24-463 L260F) above, with G145S, F237L counted along it
Method: GLP-1R-mediated agonist activity was determined with a cell-based functional assay utilizing an HTRF (Homogeneous Time-Resolved Fluorescence) cAMP detection kit (cAMP HI Range Assay Kit; CisBio cat #62AM6PEJ) that measures cAMP levels in the cell. The method is a competitive immunoassay between native cAMP produced by the cells and exogenous cAMP labeled with the dye d2. The tracer binding is visualized by a mAb anti-cAMP labeled with Cryptate. The specific signal (i.e. energy transfer) is inversely proportional to the concentration of cAMP in either standard or experimental sample.
The human GLP-1R coding sequence (NCBI Reference Sequence NP_002053.3, including naturally-occurring variant Gly168Ser) was subcloned into pcDNA3 (Invitrogen) and a cell line stably expressing the receptor was isolated (designated Clone H6).
Cells were removed from cryopreservation, re-suspended in 40 mL of Dulbecco's Phosphate Buffered Saline (DPBS—Lonza Cat #17-512Q) and centrifuged at 800×g for 5 minutes at 22° C. The cell pellet was then re-suspended in 10 mL of growth medium [DMEM/F12 1:1 Mixture with HEPES, L-Gln, 500 mL (DMEM/F12 Lonza Cat #12-719F), 10% heat inactivated fetal bovine serum (Gibco Cat #16140-071), 5 mL of 100× Pen-Strep (Gibco Cat #15140-122), 5 mL of 100×L-Glutamine (Gibco Cat #25030-081) and 500 μg/mL Geneticin (G418) (Invitrogen #10131035)]. A 1 mL sample of the cell suspension in growth media was counted on a Becton Dickinson ViCell to determine cell viability and cell count per mL. The remaining cell suspension was then adjusted with growth media to deliver 2000 viable cells per well using a Matrix Combi Multidrop reagent dispenser, and the cells were dispensed into a white 384 well tissue culture treated assay plate (Corning 3570). The assay plate was then incubated for 48 hours at 37° C. in a humidified environment in 5% carbon dioxide.
Varying concentrations of each compound to be tested (in DMSO) were diluted in assay buffer (HBSS with Calcium/Magnesium (Lonza/BioWhittaker cat #10-527F)/0.1% BSA (Sigma Aldrich cat # A7409-1L)/20 mM HEPES (Lonza/BioWhittaker cat #17-737E) containing 100 μM 3-isobutyl-1-methylxanthin (IBMX; Sigma cat #15879). The final DMSO concentration is 1%.
After 48 hours, the growth media was removed from the assay plate wells, and the cells were treated with 20 μL of the serially diluted compound in assay buffer for 30 minutes at 37° C. in a humidified environment in 5% carbon dioxide. Following the 30 minute incubation, 10 μL of labeled d2 cAMP and 10 μL of anti-cAMP antibody (both diluted 1:20 in cell lysis buffer; as described in the manufacturer's assay protocol) were added to each well of the assay plate. The plates were then incubated at room temperature and after 60 minutes, changes in the HTRF signal were read with an Envision 2104 multi-label plate reader using excitation of 330 nm and emissions of 615 and 665 nm. Raw data were converted to nM cAMP by interpolation from a cAMP standard curve (as described in the manufacturer's assay protocol) and the percent effect was determined relative to a saturating concentration of the full agonist GLP-17-36 (1 μM) included on each plate. EC50 determinations were made from agonist dose-response curves analyzed with a curve fitting program using a 4-parameter logistic dose response equation.

[3] = CHO GLP-1R Clone C6 (low receptor density)
[4] = read-out: Assay 2 EC50, CHO GLP-1R Clone C6 (low receptor density), cAMP HTRF, geometric mean
[5] = Assay 2 EC50 (nM), CHO GLP-1R Clone C6 (low receptor density), cAMP HTRF, geometric mean
[6] = CHO GLP-1R Clone H6, arithmetic mean, relative to saturating GLP-1 (1 μM)
[7] = EC50 in Assay 2, CHO GLP-1R Clone C6, cAMP, geometric mean of replicates

| SMILES | EC50 (human GLP-1R [1]; [4]) [nM] | EC50 (human GLP-1R [2]) [nM] | EC50 (human GLP-1R [1]; [5]) [nM] | Emax (human GLP-1R [1]) [%] | Emax (human GLP-1R [2]; [6]) [%] | Assay 1 Emax (%) (human GLP-1R [2]; [6]) | EC50 (human GLP-1R [1]; read-out: EC50 in Assay 2, CHO GLP-1R Clone C6, cAMP, geometric mean of replicates) [nM] | EC50 (human GLP-1R [1]; [7]) [nM] | Assay 2 Emax (%) (human GLP-1R [1]; [3]) |
| --- | --- | --- | --- | --- | --- | --- | --- | --- | --- |
| CCn1cncc1Cn1c(CN2CCC(c3cccc4c3O[C@](C)(c3ccc(Cl)cc3F)O4)CC2)nc2ccc(C(=O)O)cc21 (single isomer, unassigned) [Example 18, Ammonium 2-({4-[2-(4-chloro-2-fluorophenyl)-2-methyl-1,3-benzodioxol-4-yl]piperidin-1-yl}methyl)-1-[(I-ethyl-1H-imidazol-5-yl)methyl]-1H-benzimidazole-6-carboxylate] | 1000 | 210 |  |  |  |  |  |  | 87 |
| COCCn1c(C2CC23CCN(c2cccc4c2OC(C)(c2ccc(Cl)cc2F)O4)CC3)nc2ccc(C(=O)O)cc21 (single isomer, unassigned) [Example 25, 2-{6-[2-(4-chloro-2-fluorophenyl)-2-methyl-1,3-benzodioxol-4-yl]-6-azaspiro[2.5]oct-1-yl}-1-(2-methoxyethyl)-1H-benzimidazole-6-carboxylic acid] |  | > 20000 | > 20000 |  |  |  |  |  |  |
| CC1(c2ccc(Cl)cc2F)Oc2c(F)ccc(C3CCN(Cc4nc5ccc(C(=O)O)cc5n4C[C@@H]4CCO4)CC3)c2O1 (single isomer, unassigned) [Example 96] |  | 1.1 | 11 | 93 | 85 |  |  |  |  |
| CC1(c2ccc(Cl)cc2F)Oc2c(F)ccc(C3CCN(Cc4nc5ccc(C(=O)O)cc5n4C[C@@H]4CCO4)CC3)c2O1 (single isomer, unassigned) [Example 97] |  | 14 | 140 |  |  | 86 |  |  | 93 |
| O=C(O)c1ccc2nc(CN3CCC(c4cccc5c4O[C@@H](c4ccc(Cl)cc4F)O5)CC3)n(C[C@@H]3CCO3)c2c1 [Example 5, Ammonium 2-({4-[(2S)-2-(4-chloro-2-fluorophenyl)-1,3-benzodioxol-4-yl]piperidin-1-yl}methyl)-1-[(2S)-oxetan-2-ylmethyl]-1H-benzimidazole-6-carboxylate] | 23 | 1.3 |  | 97 | 89 |  |  | 20 |  |
| C[C@@]1(c2ccc(Cl)cc2F)Oc2cccc(C3CCN(Cc4nc5ccc(C(=O)O)cc5n4C[C@@H]4CCO4)CC3)c2O1 [Example 6, Ammonium 2-({4-[(2R)-2-(4-chloro-2-fluorophenyl)-2-methyl-1,3-benzodioxol-4-yl]piperidin-1-yl}methyl)-1-[(2S)-oxetan-2-ylmethyl]-1H-benzimidazole-6-carboxylate] |  | 140 | 2400 | 89 | 89 |  |  | 2400 |  |
| C[C@]1(c2ccc(Cl)cc2F)Oc2cccc(C3CCN(Cc4nc5ccc(C(=O)O)cc5n4C[C@@H]4CCO4)CC3)c2O1 [Example 7, Ammonium 2-({4-[(2S)-2-(4-chloro-2-fluorophenyl)-2-methyl-1,3-benzodioxol-4-yl]piperidin-1-yl}methyl)-1-[(2S)-oxetan-2-ylmethyl]-1H-benzimidazole-6-carboxylate] |  | 0.26 | 3.1 | 93 | 98 |  |  | 2.9 |  |
| CN(C)CCn1c(CN2CCC(c3cccc4c3OC(C)(c3ccc(Cl)cc3F)O4)CC2)nc2ccc(C(=O)O)cc21 (stereo not drawn) [Example 12, 2-({4-[2-(4-Chloro-2-fluorophenyl)-2-methyl-1,3-benzodioxol-4-yl]piperidin-1-yl}methyl)-1-[2-(dimethylamino)ethyl]-1H-benzimidazole-6-carboxylic Acid] |  | 29 | 690 | 92 | 83 |  |  |  |  |
| CC1(c2ccc(Cl)cc2F)Oc2cccc(C3CCN(Cc4nc5ccc(C(=O)O)nc5n4Cc4ncco4)CC3)c2O1 (stereo not drawn) [Example 13, 2-({4-[2-(4-Chloro-2-fluorophenyl)-2-methyl-1,3-benzodioxol-4-yl]piperidin-1-yl}methyl)-3-(1,3-oxazol-2-ylmethyl)-3H-imidazo[4,5-b]pyridine-5-carboxylic Acid] |  | 4.5 | 38 | 110 | 95 |  |  |  |  |
| COCCn1c(CN2CCC(c3cccc4c3OC(c3ccc(Cl)cc3F)O4)CC2)nc2ccc(C(=O)O)cc21 (stereo not drawn) [Example 20, 2-({4-[2-(4-chloro-2-fluorophenyl)-1,3-benzodioxol-4-yl]piperidin-1-yl}methyl)-1-(2-methoxyethyl)-1H-benzimidazole-6-carboxylic acid] | 270 | 17 |  | 100 | 85 |  |  |  |  |
| COCCn1c(CN2CCC(c3cccc4c3OC(c3ccc(Cl)cc3F)O4)CC2)nc2ccc(C(=O)O)cc21 (stereo not drawn) [Example 21, 2-({4-[2-(4-chloro-2-fluorophenyl)-1,3-benzodioxol-4-yl]piperidin-1-yl}methyl)-1-(2-methoxyethyl)-1H-benzimidazole-6-carboxylic acid] |  | > 20000 | > 20000 |  |  |  |  |  |  |
| CCc1ccc(C2(C)Oc3cccc(C4CCN(Cc5nc6ccc(C(=O)O)cc6n5CCOC)CC4)c3O2)cc1 (stereo not drawn) [Example 29, 2-({4-[2-(4-ethylphenyl)-2-methyl-1,3-benzodioxol-4-yl]piperidin-1-yl}methyl)-1-(2-methoxyethyl)-1H-benzimidazole-6-carboxylic acid] | 150 | 5.3 |  | 93 | 87 |  |  |  |  |
| COCCn1c(CN2CCC(c3cccc4c3OC(C)(c3ccc(OC)c(F)c3)O4)CC2)nc2ccc(C(=O)O)cc21 (stereo not drawn) [Example 30, 2-({4-[2-(3-fluoro-4-methoxyphenyl)-2-methyl-1,3-benzodioxol-4-yl]piperidin-1-yl}methyl)-1-(2-methoxyethyl)-1H-benzimidazole-6-carboxylic acid] | 1100 | 45 |  | 77 | 86 |  |  |  |  |
| COCCn1c(CN2CCC(c3cccc4c3OC(C)(c3cccc(F)c3)O4)CC2)nc2ccc(C(=O)O)cc21 (stereo not drawn) [Example 31, 2-({4-[2-(3-fluorophenyl)-2-methyl-1,3-benzodioxol-4-yl]piperidin-1-yl}methyl)-1-(2-methoxyethyl)-1H-benzimidazole-6-carboxylic acid] | 1900 | 190 |  | 65 | 88 |  |  |  |  |

The next lines start with results.

| EC50 (human GLP-1R [1]; [4]) [nM] | EC50 (human GLP-1R [2]) [nM] | EC50 (human GLP-1R [1]; [5]) [nM] | Emax (human GLP-1R [1]) [%] | Emax (human GLP-1R [2]; [6]) [%] | Assay 1 Emax (%) (human GLP-1R [2]; [6]) | EC50 (human GLP-1R [1]; read-out: EC50 in Assay 2, CHO GLP-1R Clone C6, cAMP, geometric mean of replicates) [nM] | EC50 (human GLP-1R [1]; [7]) [nM] | SMILES | Assay 2 Emax (%) (human GLP-1R [1]; [3]) |
| --- | --- | --- | --- | --- | --- | --- | --- | --- | --- |
|  | > 20000 | > 20000 |  |  |  |  |  | COCCn1c(C2CC23CCN(c2cccc4c2OC(C)(c2ccc(Cl)cc2F)O4)CC3)nc2ccc(C(=O)O)cc21 (single isomer, unassigned) [Example 26, 2-{6-[2-(4-chloro-2-fluorophenyl)-2-methyl-1,3-benzodioxol-4-yl]-6-azaspiro[2.5]oct-1-yl}-1-(2-methoxyethyl)-1H-benzimidazole-6-carboxylic acid] |  |
| 45 | 1.3 |  | 120 | 94 |  |  |  | COCCn1c(CN2CCC(c3cccc4c3OC(C)(c3ccc(Cl)cc3F)O4)CC2)nc2ncc(C(=O)O)cc21 (stereo not drawn) [Example 3, 2-({4-[2-(4-Chloro-2-fluorophenyl)-2-methyl-1,3-benzodioxol-4-yl]piperidin-1-yl}methyl)-1-(2-methoxyethyl)-1H-imidazo[4,5-b]pyridine-6-Carboxylic Acid] |  |
| > 20000 | 1600 |  |  | 87 |  | > 20000 |  | O=C(O)c1ccc2nc(CN3CCC(c4cccc5c4O[C@H](c4ccc(Cl)cc4F)O5)CC3)n(C[C@@H]3CCO3)c2c1 [Example 4, Ammonium 2-({4-[(2R)-2-(4-chloro-2-fluorophenyl)-1,3-benzodioxol-4-yl]piperidin-1-yl}methyl)-1-[(2S)-oxetan-2-ylmethyl]-1H-benzimidazole-6-carboxylate] |  |
| 79 | 7 |  | 85 | 95 |  |  |  | Cn1c(CN2CCC(c3cccc4c3O[C@@](C)(c3ccc(Cl)cc3F)O4)CC2)nc2ccc(C(=O)O)cc21 [Example 14, 2-({4-[(2S)-2-(4-Chloro-2-fluorophenyl)-2-methyl-1,3-benzodioxol-4-yl]piperidin-1-yl}methyl)-1-methyl-1H-benzimidazole-6-carboxylic Acid] |  |
| 25 | 1.2 |  | 100 | 87 |  |  |  | COCCn1c(CN2CCN(c3cccc4c3OC(C)(c3ccc(Cl)cc3F)O4)CC2)nc2ccc(C(=O)O)cc21 (stereo not drawn) [Example 19, 2-({4-[2-(4-chloro-2-fluorophenyl)-2-methyl-1,3-benzodioxol-4-yl]piperazin-1-yl}methyl)-1-(2-methoxyethyl)-1H-benzimidazole-6-carboxylic acid] |  |
| 49 | 1.4 |  | 110 | 82 |  |  |  | COCCn1c(CN2CCC(c3cccc4c3OC(C)(c3ccc(Cl)cc3F)O4)CC2)nc2ccc(C(=O)O)cc21 (stereo not drawn) [Example 24, 2-({4-[2-(4-chloro-2-fluorophenyl)-2-methyl-1,3-benzodioxol-4-yl]piperidin-1-yl}methyl)-1-(2-methoxyethyl)-1H-benzimidazole-6-carboxylic acid] |  |
| 1000 | 61 |  | 100 | 98 |  |  |  | COCCn1c(CN2CCC(c3cccc4c3OC(c3ccc(C#N)cc3F)O4)CC2)nc2ccc(C(=O)O)cc21 (stereo not drawn) [Example 27, 2-({4-[2-(4-cyano-2-fluorophenyl)-1,3-benzodioxol-4-yl]piperidin-1-yl}methyl)-1-(2-methoxyethyl)-1H-benzimidazole-6-carboxylic acid] |  |
| 450 | 18 |  | 87 | 86 |  |  |  | COCCn1c(CN2CCC(c3cccc4c3OC(C)(c3ccc(OC)cc3)O4)CC2)nc2ccc(C(=O)O)cc21 (stereo not drawn) [Example 32, 1-(2-methoxyethyl)-2-({4-[2-(4-methoxyphenyl)-2-methyl-1,3-benzodioxol-4-yl]piperidin-1-yl}methyl)-1H-benzimidazole-6-carboxylic acid] |  |
